Among the data in patent publication US20050148631A1, “Amino heterocyclyl inhibitors of 11-beta-hydroxy steroid dehydrogenase type 1” (AGOURON PHARMACEUTICALS, INC., priority 2003, published 2005) are inhibition values, retold here.

Read-outs that look alike come from different tables or passages of the source.

For this assay, the target named is 11β-hsd-1 enzyme (Homo sapiens, UniProt P28845). Description: 11β-hsd-1 enzyme assay, percentage of inhibition (3H-cortisone to cortisol, radio-HPLC). The format is biochemical. Particulars: read-out: % inh @ 0.1 uM.
Chain of 11β-hsd-1 enzyme (P28845 whole entry, species assumed): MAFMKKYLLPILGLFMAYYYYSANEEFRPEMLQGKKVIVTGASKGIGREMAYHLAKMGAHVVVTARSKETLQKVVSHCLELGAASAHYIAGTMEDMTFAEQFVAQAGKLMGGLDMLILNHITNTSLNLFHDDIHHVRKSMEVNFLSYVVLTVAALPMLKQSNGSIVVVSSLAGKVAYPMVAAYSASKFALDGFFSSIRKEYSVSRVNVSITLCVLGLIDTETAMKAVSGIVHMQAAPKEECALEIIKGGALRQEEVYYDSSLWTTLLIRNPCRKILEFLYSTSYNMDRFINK

`Cc1cccc(NS(=O)(=O)c2ccc(N3CCOCC3)nc2)n1` [Example 83]: the inhibition at 0.1 µM (0.1 uM) was determined as 11.1%.

As to `Cc1c(S(=O)(=O)Nc2cccc(CN(C)C)n2)sc2ccc(Cl)cc12` [Example 84], the inhibition at 0.1 µM (0.1 uM) came out at 26.4%.

As for `COc1ccc(C)nc1NS(=O)(=O)c1ccc(C(F)(F)F)cc1` [Example 89], the inhibition at 0.1 µM (0.1 uM) was 3.7%.

`Cc1cccc(NS(=O)(=O)c2ccc(C#N)cc2)n1` [Example 90]: where the note is “0.1 uM”, the inhibition at 0.1 µM is 24.8%.

As to `Cc1cccc(NS(=O)(=O)c2ccc(-n3cccn3)cc2)n1` [Example 92], the inhibition at 0.1 µM (0.1 uM) amounted to 29.8%.

Regarding `Cc1cc(C)nc(NS(=O)(=O)c2sc(-c3ccccc3)nc2C)c1` [Example 97], the inhibition at 0.1 µM (0.1 uM) worked out at 31.7%.

Regarding `Cc1cccc(NS(=O)(=O)c2sc(C)nc2C)n1` [Example 98], under “0.1 uM”, the inhibition at 0.1 µM amounted to 8.9%.

Consider `Cc1cccc(NS(=O)(=O)c2cnn(-c3ccccc3)c2C)n1` [Example 99], for which the inhibition at 0.1 µM (0.1 uM) was 15%.

Turning to `CC(=O)Nc1nc(C)c(S(=O)(=O)Nc2cc(C)cc(C)n2)s1` [Example 100], the inhibition at 0.1 µM (0.1 uM) came to 19.2%.

For the molecule `Cc1nc(NS(=O)(=O)c2ccc(-c3ccc(C#N)cc3)cc2)ccc1C#N` [Example 101], where the note is “0.1 uM”, the inhibition at 0.1 µM stood at 32%.

For the molecule `N#Cc1ccc(-c2ccc(S(=O)(=O)Nc3cc(O)c4ccccc4n3)cc2)cc1` [Example 105], under “0.1 uM”, the inhibition at 0.1 µM stood at 16.9%.

Turning to `Cc1cc(C)c2ccc(NS(=O)(=O)c3ccc(-c4ccc(C#N)cc4)cc3)nc2n1` [Example 106], for the setting “0.1 uM”, the inhibition at 0.1 µM is 5.4%.

In the case of `Cc1cccc(N(C)S(=O)(=O)c2ccc(-c3ccc(C#N)cc3)cc2)n1` [Example 110, 4′-Cyano-biphenyl-4-sulfonic acid methyl-(6-methyl-pyridin-2-yl)-amide], the inhibition at 0.1 µM (0.1 uM) amounted to 8.1%.

`Cc1cc(N)nc(NS(=O)(=O)c2ccc(-c3ccc(C#N)cc3)cc2)c1` [Example 113, 4′-Cyano-biphenyl-4-sulfonic acid (6-amino-4-methyl-pyridin-2-yl)-amide]: the inhibition at 0.1 µM (0.1 uM) amounted to 100%.

For the molecule `Cc1c(Cl)cccc1S(=O)(=O)Nc1cccc(CCO)n1` [Example 114, 3-Chloro-N-[6-(2-hydroxy-ethyl)-pyridin-2-yl]-2-methyl-benzenesulfonamide], the inhibition at 0.1 µM (0.1 uM) was determined as 11.3%.

Take `Cc1c(Cl)cccc1S(=O)(=O)Nc1cccc(CO)n1` [Example 116]: where the note is “0.1 uM”, the inhibition at 0.1 µM stood at 37.2%.

For the molecule `COc1ccccc1-c1ccc(S(=O)(=O)Nc2cccc(C)n2)cc1` [Example 120], the inhibition at 0.1 µM (0.1 uM) is 71.7%.

Consider `CCOc1cccc(-c2ccc(S(=O)(=O)Nc3cccc(C)n3)cc2)c1` [Example 121], for which, under “0.1 uM”, the inhibition at 0.1 µM came to 61.4%.

As to `Cc1cccc(NS(=O)(=O)c2ccc(-c3ccccc3C(F)(F)F)cc2)n1` [Example 122], the inhibition at 0.1 µM (0.1 uM) was found to be 85.7%.

Consider `Cc1cccc(NS(=O)(=O)c2ccc(-c3ccc(F)c(Cl)c3)cc2)n1` [Example 123], for which the inhibition at 0.1 µM (0.1 uM) was 89.9%.

Consider `Cc1ccc(-c2ccc(S(=O)(=O)Nc3cccc(C)n3)cc2)cc1` [Example 124], for which the inhibition at 0.1 µM (0.1 uM) worked out at 84%.

Regarding `Cc1cccc(NS(=O)(=O)c2ccc(-c3ccccc3Cl)cc2)n1` [Example 125], the inhibition at 0.1 µM (0.1 uM) was 87.8%.

For the molecule `Cc1cccc(NS(=O)(=O)c2ccc(-c3ccccc3C)cc2)n1` [Example 126], for the setting “0.1 uM”, the inhibition at 0.1 µM came to 77.6%.

`C=Cc1ccc(-c2ccc(S(=O)(=O)Nc3cccc(C)n3)cc2)cc1` [Example 127]: the inhibition at 0.1 µM (0.1 uM) was found to be 100%.

With `CSc1ccc(-c2ccc(S(=O)(=O)Nc3cccc(C)n3)cc2)cc1` [Example 129], the inhibition at 0.1 µM (0.1 uM) was determined as 86.3%.

Regarding `Cc1cccc(NS(=O)(=O)c2ccc(-c3cccc(C(F)(F)F)c3)cc2)n1` [Example 130], for the setting “0.1 uM”, the inhibition at 0.1 µM turned out to be 78.9%.

Take `Cc1cccc(NS(=O)(=O)c2ccc(-c3cc(Cl)cc(Cl)c3)cc2)n1` [Example 131]: the inhibition at 0.1 µM (0.1 uM) is 100%.

Regarding `Cc1cccc(NS(=O)(=O)c2ccc(-c3cccc(C#N)c3)cc2)n1` [Example 132], the inhibition at 0.1 µM (0.1 uM) was found to be 61.7%.

In the case of `Cc1cccc(NS(=O)(=O)c2ccc(-c3cc(Cl)ccc3Cl)cc2)n1` [Example 134], the inhibition at 0.1 µM (0.1 uM) is 83.5%.

As for `COc1ccc(-c2ccc(S(=O)(=O)Nc3cccc(C)n3)cc2)c(OC)c1` [Example 135], under “0.1 uM”, the inhibition at 0.1 µM came out at 49.1%.

For `Cc1cccc(NS(=O)(=O)c2ccc(-c3ccc4ccccc4c3)cc2)n1` [Example 137], the inhibition at 0.1 µM (0.1 uM) came out at 79%.

In the case of `Cc1cccc(NS(=O)(=O)c2ccc(-c3ccc4c(c3)OCO4)cc2)n1` [Example 138], under “0.1 uM”, the inhibition at 0.1 µM turned out to be 91.2%.

Take `CSc1ccccc1-c1ccc(S(=O)(=O)Nc2cccc(C)n2)cc1` [Example 139]: the inhibition at 0.1 µM (0.1 uM) was determined as 37.9%.

For the molecule `Cc1cccc(NS(=O)(=O)c2ccc(-c3ccc(Cl)c(Cl)c3)cc2)n1` [Example 140], the inhibition at 0.1 µM (0.1 uM) came out at 91%.

On to `CCSc1ccc(-c2ccc(S(=O)(=O)Nc3cccc(C)n3)cc2)cc1` [Example 141], for which the inhibition at 0.1 µM (0.1 uM) came out at 83.8%.

In the case of `Cc1cccc(NS(=O)(=O)c2ccc(-c3ccc(F)cc3F)cc2)n1` [Example 142], the inhibition at 0.1 µM (0.1 uM) was found to be 84.5%.

As to `Cc1cccc(NS(=O)(=O)c2ccc(-c3ccc(OC(F)(F)F)cc3)cc2)n1` [Example 144], the inhibition at 0.1 µM (0.1 uM) turned out to be 86.8%.

Take `Cc1cccc(NS(=O)(=O)c2ccc(-c3cc(F)cc(F)c3)cc2)n1` [Example 145]: under “0.1 uM”, the inhibition at 0.1 µM worked out at 80.6%.

Consider `Cc1cccc(NS(=O)(=O)c2ccc(-c3ccc(CO)cc3)cc2)n1` [Example 146], for which the inhibition at 0.1 µM (0.1 uM) was found to be 46.5%.

On to `COc1ccc(F)cc1-c1ccc(S(=O)(=O)Nc2cccc(C)n2)cc1` [Example 147], for which the inhibition at 0.1 µM (0.1 uM) was found to be 29.5%.

For `CC(=O)c1cccc(-c2ccc(S(=O)(=O)Nc3cccc(C)n3)cc2)c1` [Example 148], the inhibition at 0.1 µM (0.1 uM) was 57.2%.

As to `CC(=O)Nc1ccc(-c2ccc(S(=O)(=O)Nc3cccc(C)n3)cc2)cc1` [Example 149], the inhibition at 0.1 µM (0.1 uM) stood at 20.4%.

For the molecule `Cc1cccc(NS(=O)(=O)c2ccc(-c3ccc(F)c(C)c3)cc2)n1` [Example 150], the inhibition at 0.1 µM (0.1 uM) was 79.3%.

As to `Cc1cccc(NS(=O)(=O)c2ccc(/C=C/c3ccccc3)cc2)n1` [Example 151], for the setting “0.1 uM”, the inhibition at 0.1 µM is 59.8%.

In the case of `Cc1cccc(NS(=O)(=O)c2ccc(-c3cc(F)c(F)c(F)c3)cc2)n1` [Example 152], under “0.1 uM”, the inhibition at 0.1 µM was 72.7%.

Take `Cc1cccc(NS(=O)(=O)c2ccc(-c3cccc(OC(F)(F)F)c3)cc2)n1` [Example 153]: the inhibition at 0.1 µM (0.1 uM) was 75.3%.

On to `Cc1cccc(NS(=O)(=O)c2ccc(-c3cccc(COc4ccccc4)c3)cc2)n1` [Example 155], for which the inhibition at 0.1 µM (0.1 uM) amounted to 83.3%.

With `COc1c(C)cc(-c2ccc(S(=O)(=O)Nc3cccc(C)n3)cc2)cc1C` [Example 156], the inhibition at 0.1 µM (0.1 uM) was 65.6%.

As for `Cc1cccc(NS(=O)(=O)c2ccc(-c3ccc(C(F)(F)F)cc3)cc2)n1` [Example 157], the inhibition at 0.1 µM (0.1 uM) is 100%.

For the molecule `Cc1cccc(NS(=O)(=O)c2ccc(-c3ccc(S(C)(=O)=O)cc3)cc2)n1` [Example 158], the inhibition at 0.1 µM (0.1 uM) turned out to be 71%.

Consider `Cc1cccc(NS(=O)(=O)c2ccc(-c3ccc(OCc4ccccc4)cc3)cc2)n1` [Example 159], for which, for the setting “0.1 uM”, the inhibition at 0.1 µM was found to be 90.4%.

For the molecule `Cc1cccc(NS(=O)(=O)c2ccc(-c3ccc(C(C)(C)C)cc3)cc2C)n1` [Example 175], the inhibition at 0.1 µM (0.1 uM) was found to be 59%.

On to `CCOc1ccccc1-c1ccc(S(=O)(=O)Nc2cccc(C)n2)c(C)c1` [Example 188], for which the inhibition at 0.1 µM (0.1 uM) came to 53%.

In the case of `Cc1cccc(-c2ccc(S(=O)(=O)Nc3cccc(C)n3)c(C)c2)c1` [Example 189], the inhibition at 0.1 µM (0.1 uM) came to 88%.

As to `Cc1cccc(NS(=O)(=O)c2ccc(-c3ccc(O)cc3)cc2C)n1` [Example 199], the inhibition at 0.1 µM (compound at 0.1 uM) turned out to be 55%.

On to `Cc1cccc(NS(=O)(=O)c2ccc(-c3ccccc3C)c(C)c2)n1` [Example 218], for which, where the note is “compound at 0.1 uM”, the inhibition at 0.1 µM came out at 56%.

Take `Cc1cccc(NS(=O)(=O)c2ccc(-c3cccc(C#N)c3)c(C)c2)n1` [Example 220]: where the note is “compound at 0.1 uM”, the inhibition at 0.1 µM was 67%.

Take `Cc1cccc(-c2ccc(S(=O)(=O)Nc3cccc(C)n3)cc2C)c1` [Example 227]: the inhibition at 0.1 µM (compound at 0.1 uM) was 40%.

Regarding `CCOc1ccc(-c2ccc(S(=O)(=O)Nc3cccc(C)n3)cc2C)cc1` [Example 229], the inhibition at 0.1 µM (compound at 0.1 uM) is 9%.

In the case of `Cc1cccc(NS(=O)(=O)c2ccc(-c3ccccc3F)c(C)c2)n1` [Example 230], the inhibition at 0.1 µM (compound at 0.1 uM) came out at 23%.

In the case of `COc1ccc(-c2ccc(S(=O)(=O)Nc3cccc(C)n3)cc2C)cc1F` [Example 231], for the setting “compound at 0.1 uM”, the inhibition at 0.1 µM was 63%.

Take `Cc1cccc(NS(=O)(=O)c2ccc(-c3ccc(S(C)(=O)=O)cc3)c(C)c2)n1` [Example 234]: where the note is “compound at 0.1 uM”, the inhibition at 0.1 µM was 57%.

As to `CCc1ccc(-c2ccc(S(=O)(=O)Nc3cccc(C)n3)cc2C)cc1` [Example 235], the inhibition at 0.1 µM (compound at 0.1 uM) was found to be 87%.

Take `Cc1cccc(NS(=O)(=O)c2ccc(-c3cccc(Cl)c3Cl)c(C)c2)n1` [Example 237]: the inhibition at 0.1 µM (compound at 0.1 uM) was 58%.

Consider `COc1ccc(C(C)C)cc1-c1ccc(S(=O)(=O)Nc2cccc(C)n2)cc1C` [Example 239], for which, where the note is “compound at 0.1 uM”, the inhibition at 0.1 µM came to 65%.

With `Cc1ccc(C)c(-c2ccc(S(=O)(=O)Nc3cccc(C)n3)cc2C)c1` [Example 240], the inhibition at 0.1 µM (compound at 0.1 uM) is 89%.

With `Cc1cccc(NS(=O)(=O)c2ccc(-c3c(C)cccc3C)c(C)c2)n1` [Example 241], the inhibition at 0.1 µM (compound at 0.1 uM) stood at 64%.

As for `Cc1cccc(NS(=O)(=O)c2ccc(-c3ccc(F)cc3C)c(C)c2)n1` [Example 242], under “compound at 0.1 uM”, the inhibition at 0.1 µM was 61%.

`COc1ccc(-c2ccc(S(=O)(=O)Nc3cccc(C)n3)cc2C)cc1C` [Example 243]: the inhibition at 0.1 µM (compound at 0.1 uM) is 70%.

For the molecule `Cc1cccc(NS(=O)(=O)c2ccc(-c3ccc(F)c(F)c3)c(C)c2)n1` [Example 244], the inhibition at 0.1 µM (compound at 0.1 uM) came out at 86%.

In the case of `Cc1cccc(NS(=O)(=O)c2ccc(-c3ccc4c(c3)OCCO4)c(C)c2)n1` [Example 245], the inhibition at 0.1 µM (compound at 0.1 uM) came out at 62%.

Consider `CCCCc1ccc(-c2ccc(S(=O)(=O)Nc3cccc(C)n3)cc2C)cc1` [Example 246], for which, for the setting “compound at 0.1 uM”, the inhibition at 0.1 µM was determined as 65%.

For the molecule `Cc1cccc(NS(=O)(=O)c2ccc(-c3ccc(CC(C)C)cc3)c(C)c2)n1` [Example 248], where the note is “compound at 0.1 uM”, the inhibition at 0.1 µM was 57%.
